Data taken from patent US4639444A, “3,5-dialkyl-4,6-diaryl-tetrahydro-2H-13,5-thiadiazine-2-thione derivative, process for its production and antihyperlipidemic agent containing it” (Nissan Chemical Industries Ltd., priority 1984, dated 1987).

Columns and labels:
[1] = literature, and its derivatives; cited from earlier work
[2] = system: emulsion-induced hyperlipidemic rats; assay: antihyperlipidemic activity in emulsion-induced hyperlipidemic rats; assay type: in vivo; conditions: Rattus norvegicus, po, 72 h, 300 mg/kg daily via stomach tube, 3 days, male S.D. rats, lipids emulsion, versus control group; for change in vivo at 300 mg/kg: "-" = reduction rate, read-out: Increase rate of serum HDL-Chol.; for inhibition in vivo at 300 mg/kg: read-out: Reduction rate of serum Chol.
Experimental: The antihyperlipidemic activity in emulsion-induced hyperlipidemic rats: Male S. D. rats weighing 80-90 g (4 weeks old) were used. They were devided into groups of 5 to 6 rats each. The test compounds suspended in 0.5% CMC-Na(carboxymethyl cellulose sodium salt) were given to the rats in a daily dose of 4.0 ml/kg (i.e. 300 mg/kg of the test compounds) via stomach tube every 10:00 a.m. After 30 min., lipids emulsion having the following composition was orally given to the rats in an amount of 2.5 ml per rat. During the experimental period of 3 days, the rats were fed on a standard commercial diet and water ad libitum. […] The total cholesterol and HDL cholesterol were measured. The weight of the liver was measured. To the control group, only the aqueous CMC-Na solution and the lipids emulsion were given. The fractionation of lipoproteins was conducted by a dextran sulfate-MgCl2 precipitation method. Cholesterol in serum was measured by means of a cholesterol measuring kit (Cholesterol C-Test Wako, manufactured by Wako Junyaku Co., Ltd.), and cholesterol in HDL was measured by means of NC Hi-Set, manufactured by Nippon Chemiphar Co., Ltd. In the following description, cholesterol is referred to as "Chol". Further, the reduction rate of Chol was calculated by the following equation. [formula] where A is the amount of serum Chol (mg/dl) of the control group, and B is the amount of serum Chol (mg/dl) of the group to which the therapeutic agent was administered. Likewise, the increase rate of serum HDL-Chol was calculated by the following equation. [formula] where C is the amount of serum HDL-Chol (mg/dl) of the control group, and D is the amount of serum HDL-Chol (mg/dl) of the group to which the therapeutic agent was administered.

[3] = animal experiments, Svoboda and Azarnoff, Cancer Res. 39, 3419 (1979); cited from earlier work
[4] = acute toxicity (mortality after seven days); conditions: mouse, in vivo, po, 4000 mg/kg p.o., male ddY mice
Experimental: The test compounds suspended in 0.5% CMC-Na were administered p.o. to male ddY mice. The acute toxicity was determined based on the mortality after seven days. In respect of the Compound Nos. 1, 2, 3, 4, 6, 7, 10, 12 and 13 of the present invention, the mortality was 0% even at a dose of as high as 4000 mg/kg by oral administration.

| Compound | side effects reported [1] | change in vivo at 300 mg/kg [2] [%] | inhibition in vivo at 300 mg/kg [2] [%] | hepatic carcinoma [3] | mortality at 168 h [4] [%] |
| --- | --- | --- | --- | --- | --- |
| CCOC(=O)C(C)(C)Oc1ccc(Cl)cc1 [Clofibrate, reference compound] | myalgia or hepatic insufficiency,and they are likely to lead to gallstone formation | -8 | 45 | brings about hepatic carcinoma on animal experiments | – |
| CN1C(=S)SC(c2ccc(Oc3ccccc3)cc2)N(C)C1c1ccc(Oc2ccccc2)cc1 (stereo not shown) [compound 10] | – | -23 | 53 | – | 0 |
| CN1C(=S)SC(c2ccc3c(c2)OCO3)N(C)C1c1ccc2c(c1)OCO2 (stereo not shown) [compound 13] | – | 54 | 52 | – | 0 |
| Cc1cccc(C2SC(=S)N(C)C(c3cccc(C)c3)N2C)c1 (stereo not shown) [Compound No. 5] | – | 52 | 44 | – | – |
| COc1ccc(C2SC(=S)N(C)C(c3ccc(OC)cc3OC)N2C)c(OC)c1 (stereo not shown) [compound 12] | – | 46 | 31 | – | 0 |
| CSc1ccc(C2SC(=S)N(C)C(c3ccc(SC)cc3)N2C)cc1 (stereo not shown) [compound 11] | – | 53 | 13 | – | – |
| COc1ccccc1C1SC(=S)N(C)C(c2ccccc2OC)N1C (stereo not shown) [Compound No. 3] | – | 33 | 32 | – | 0 |
| Cc1ccccc1C1SC(=S)N(C)C(c2ccccc2C)N1C (stereo not shown) [compound 6] | – | 61 | 40 | – | 0 |
| COc1cccc(C2SC(=S)N(C)C(c3cccc(OC)c3OC)N2C)c1OC (stereo not shown) [compound 16] | – | 44 | 34 | – | – |
| COc1cc(C2SC(=S)N(C)C(c3cc(OC)c(OC)c(OC)c3)N2C)cc(OC)c1OC (stereo not shown) [compound 14] | – | 6 | 19 | – | – |
| CN1C(=S)SC(c2ccc(F)cc2)N(C)C1c1ccc(F)cc1 (stereo not shown) [compound 8] | – | 37 | 26 | – | – |
| O=C(O)c1cccnc1 [nicotinic acid] | flashing or gastroenteric troubles | – | – | – | – |
| CCN1C(=S)SC(c2ccccc2)N(CC)C1c1ccccc1 (stereo not shown) [compound 15] | – | 31 | 45 | – | – |
| CC(C)c1ccc(C2SC(=S)N(C)C(c3ccc(C(C)C)cc3)N2C)cc1 (stereo not shown) [compound 9] | – | 56 | 30 | – | – |
| COc1ccc(C2SC(=S)N(C)C(c3ccc(OC)cc3)N2C)cc1 (stereo not shown) [Compound No. 1, 3,5-Dimethyl-4,6-di(p-methoxyphenyl)-tetrahydro-2H-1,3,5-thiadiazine-2-thione] | – | 53 | 42 | – | 0 |
| Cc1ccc(C2SC(=S)N(C)C(c3ccc(C)cc3)N2C)cc1 (stereo not shown) [Compound No. 4] | – | 99 | 49 | – | 0 |
| CCOc1ccccc1C1SC(=S)N(C)C(c2ccccc2OCC)N1C (stereo not shown) [compound 7] | – | 14 | 37 | – | 0 |
| COc1cccc(C2SC(=S)N(C)C(c3cccc(OC)c3)N2C)c1 (stereo not shown) [Compound No. 2] | – | 25 | 41 | – | 0 |
